Earlier results, collected in patent US20060159736A1, “Liposome formulations of boronic acid compounds” (priority 2004, published 2006).
Where two headings read alike, the source gives them in different places.

What was measured:
lung cancer xenograft = lung cancer xenograft models
[1] = intravenous bolus on days 1, 4, 8, and 11 of a 3-week cycle
tumor lines = conditions: range of tumor lines
[2] = tested on: human prostate cancer xenograft; conditions: human prostate xenograft models
[3] = tested on: cancer tissues (breast, ovarian, prostate, lung) and tumors (pancreatic tumors, lymphomas, melanoma)
[4] = given intravenously once or twice weekly; patients with solid tumors

CC(C)C[C@H](NC(=O)[C@H](Cc1ccccc1)NC(=O)c1cnccn1)B(O)O [bortezomib]
antitumor activity (lung cancer xenograft): had antitumor activity
maximum tolerated dose [1]: 1.56 mg/m^2
cytotoxicity (tumor lines): showed cytotoxicity against a range of tumor lines
antitumor activity [2]: had antitumor activity
activity against cancer tissues and tumors [3]: activity against a variety of cancer tissues
maximum tolerated dose [4]: 1.3 mg/m^2
